39 compounds from patent publication US4837316A, “Alkylamide derivatives with H2 -receptor antagonistic and cytoprotective action” (Fujirebio Kabushiki Kaisha, priority 1985, dated 1989) can be followed below.

By pA2 is commonly meant the negative logarithm of the molar antagonist concentration that doubles the agonist concentration needed for the same response. Lower therefore signals lower antagonist potency.

One assay concerns the target T1, Histamine H2-receptor (Cavia porcellus, UniProt P47747).
T1 construct: the right atrium was isolated rapidly; from tissue; host or cells: guinea pig right atrium (isolated organ)
As to the kind of experiment: Histamine H2-receptor antagonistic action (isolated right atrium, histamine response). The note with it: isolated guinea-pig right atrium, 32° C., tested compound 1×10^-6 M or 1×10^-7 M, Van Rossum method; for Kb: read-out: pA2 (converted). Here is the method:
Histamine H2 -receptor antagonistic actions of the exemplified compounds were measured. Male Guinea-Pig weighing 300 to 350 g was killed by a blow on the head. After thoracotomy, the right atrium was isolated rapidly, and the surrounding tissues of the right atrium was carefully dissected. The preparation was mounted isometrically in 30 ml organ bath containing an oxygenated (O2 95%+CO2 5%) Krebs-Henselite solution at 32° C. 1 g of resting tension was loaded through the experiment. Contraction of the right atrium to histamine was measured with a force-displacement transducer, and heart rate was measured with a heart rate meter. After the control dose-response curve in the presence of tested compound (1×10^-6 M or 1×10^-7 M) was determined.
The pA2 value of each compound was determined from these two curves by the method of J. M. Van Rossum (Arch. Int. Pharmacodyn. Ther 143-299 (1963)).

In another assay the test system is gastric mucosal leasion. As to the kind of experiment: Cytoprotective action (gastric mucosal lesion by necrotizing agent 0.4N HCl+50% EtOH). To be noted: Rattus norvegicus, po; 10 mg/kg P.O., 30 minutes before 5 ml/kg 0.4N HCl+50% EtOH; stomach taken 1 hour after; read-out: Repression % (inhibition % of total area of gastric mucosal leasion vs control). It is filed as in vivo, Male Donryu rats. Here is the method: Cytoprotective actions of the exemplified compounds were examined.
Male Donryu rats weighing 150-250 g were used after fasting for 24 hours. 10 mg/kg P.O. of the test compound was administrated, and 5 ml/kg of a necrotizing agent (0.4N HCl+50% EtOH) was orally administrated after 30 minutes. After 1 hour from the administration of the necrotizing agent, its stomach was dissected out, and fixed with formalin. Total area of gastric mucosal leasion was measured, and compared with a control group to determine inhibition %.

T1 sequence (P47747 whole entry): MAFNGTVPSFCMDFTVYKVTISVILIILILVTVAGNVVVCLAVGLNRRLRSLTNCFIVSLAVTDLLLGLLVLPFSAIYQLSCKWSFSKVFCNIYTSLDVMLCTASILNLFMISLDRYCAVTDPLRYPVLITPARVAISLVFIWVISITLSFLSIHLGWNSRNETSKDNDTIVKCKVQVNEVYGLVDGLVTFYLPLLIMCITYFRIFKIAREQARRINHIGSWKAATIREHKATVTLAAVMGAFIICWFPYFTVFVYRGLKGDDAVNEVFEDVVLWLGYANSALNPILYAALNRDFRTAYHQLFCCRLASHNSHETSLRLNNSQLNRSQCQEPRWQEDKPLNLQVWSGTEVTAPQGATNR

As for `CC(SCC(=O)NCCCOc1cccc(CN2CCCCC2)c1)c1ccco1` (centres unmarked) [Compound 58, N-[3-{3-(piperidinomethyl)phenoxy}propyl]-2-{1-(2-furyl)ethylthio}acetamide], the Kb on Histamine H2-receptor is 31.6 nM. In the case of `O=C(CSCc1ccc2ccccc2c1)NCCCOc1cccc(CN2CCCCC2)c1` [Compound 21, N-[3-{3-(piperidinomethyl)phenoxy}propyl]-2-(2-naphthylmethylthio)acetamide], the inhibition in vivo at 10 mg/kg in the assay with gastric mucosal leasion amounted to 60%. With `CC(=O)Nc1ccsc1CSCC(=O)NCCCOc1cccc(CN2CCCCC2)c1` [Compound 116, N-[3-{3-(piperidinomethyl)phenoxy}propyl]-2-{(3-acetamide-2-thienyl)methylthio}acetamide], the Kb on Histamine H2-receptor was 31.6 nM. The same measure, in the same setting: in the case of `O=C(CSCc1ccc(Cl)s1)NCCCOc1cccc(CN2CCCCC2)c1` [Compound 113, N-[3-{(piperidinomethyl)phenoxy}propyl]-2-{(5-chloro-2-thienyl)methylthio}acetamide] it was 25.1 nM. `CC1CCCN(Cc2cccc(OCCCNC(=O)CS(=O)(=O)Cc3ccoc3)c2)C1` (centres unmarked) [Compound 73]: the Kb on Histamine H2-receptor was 50.1 nM. Moreover, the inhibition in vivo at 10 mg/kg in the assay with gastric mucosal leasion came out at 88%. With `O=C(CSCc1ccco1)NCCCOc1cccc(CN2CCCCC2)c1` [Compound 19, N-[3-{3-(piperidinomethyl)phenoxy}propyl]-2-(furfurylthio)acetamide], the Kb at Histamine H2-receptor was 50.1 nM. Further, the inhibition in vivo at 10 mg/kg in the assay on gastric mucosal leasion is 63%. The matching figures for `O=C(C[S+]([O-])Cc1ccccc1)NCCCOc1cccc(CN2CCCCC2)c1` (centres unmarked) [Compound 44, N-[3-{3-(piperidinomehtyl)phenoxy}propyl]-2-(benzylsulfinyl)acetamide]: 251 nM and 73%. For `COC(=O)c1ccc(CSCC(=O)NCCCOc2cccc(CN3CCCCC3)c2)o1` [Compound 75, N-[3-{3-(piperidinomethyl)phenoxy}propyl]-2-{(5-methoxycarbonyl)furfurylthio}acetamide], at Histamine H2-receptor, the Kb was 20 nM. `NC(N)=Nc1nc(CSCCNC(=O)CSCc2ccco2)cs1` [Compound 110]: on Histamine H2-receptor, the Kb is 79.4 nM. Also, the inhibition in vivo at 10 mg/kg in the assay with gastric mucosal leasion was 58%. Turning to `O=C(CS(=O)(=O)Cc1ccco1)NCCCOc1cccc(CN2CCCCC2)c1` [Compound 47, N-[3-[3-(piperidinomethyl)phenoxy]propyl]-2-(furfurylsulfonyl)acetamide], the inhibition in vivo at 10 mg/kg with gastric mucosal leasion came to 85%. Turning to `O=C(CCCCCSCc1ccccc1)NCCCOc1cccc(CN2CCCCC2)c1` [Compound 35, N-[3-{3-(piperidinomethyl)phenoxy}propyl]-6-(benzylthio)hexylamide], in the assay on gastric mucosal leasion, the inhibition in vivo at 10 mg/kg stood at 61%.

In the case of `O=C(CSCc1ccco1)NCCSCc1ccc(CN2CCCCC2)s1` [Compound 94], at Histamine H2-receptor, the Kb was 316 nM. Take `O=C(C[S+]([O-])Cc1ccco1)NCCCOc1cccc(CN2CCCCC2)c1` (centres unmarked) [Compound 46, N-[3-[3-(piperidinomethyl)phenoxy}propyl]-2-(furfurylsulfinyl)acetamide]: the inhibition in vivo at 10 mg/kg in the assay on gastric mucosal leasion is 72%. Consider `O=C(CSCc1ccsc1Cl)NCCCOc1cccc(CN2CCCCC2)c1` [Compound 114, N-[3-{3-(piperidinomethyl)phenoxy}propyl]-2-{(2-chloo-3-thienyl)methylthio}acetamide], for which the Kb at Histamine H2-receptor was 39.8 nM. Consider `NC(N)=Nc1nc(CSCCNC(=O)CSCc2ccccc2)cs1` [Compound 105], for which, at Histamine H2-receptor, the Kb is 79.4 nM. Still for that read-out and setting: in the case of `O=C(CSCC1CCCCC1)NCCCOc1cccc(CN2CCCCC2)c1` [Compound 16, N-[3-{3-(piperidinomethyl)phenoxy}propyl]-2-(cyclohexylmethylthio)acetamide] it was 12.6 nM. Turning to `NC(N)=Nc1nc(CSCCNC(=O)CSCC2CCCCC2)cs1` [Compound 107], the Kb at Histamine H2-receptor was 794 nM. Moreover, the inhibition in vivo at 10 mg/kg in the assay on gastric mucosal leasion is 52.3%. Turning to `NC(N)=Nc1nc(CSCCNC(=O)CSCc2ccccn2)cs1` [Compound 109], the pA2 at Histamine H2-receptor is 7.6. As to `O=C(CSCc1ccco1)NCCSCc1ccc(C=CCN2CCCC2)s1` [Compound 93], in the assay with gastric mucosal leasion, the inhibition in vivo at 10 mg/kg amounted to 43%. On to `COc1ccc(CSCC(=O)NCCCOc2cccc(CN3CCCCC3)c2)nc1` [Compound 79], for which the Kb on Histamine H2-receptor is 7.94 nM. Moreover, the inhibition in vivo at 10 mg/kg in the assay with gastric mucosal leasion is 53%.

Regarding `O=C(CSCc1ccccc1)NCCCOc1cccc(CN2CCCCC2)c1` [Compound 1, N-[3-{3-(piperidinomethyl)phenoxy}propyl]-2-(benzylthio)acetamide], at Histamine H2-receptor, the Kb is 31.6 nM. For the same compound, the inhibition in vivo at 10 mg/kg in the assay on gastric mucosal leasion was 59%. Take `Cc1ccc(CSCC(=O)NCCCOc2cccc(CN3CCCCC3)c2)s1` [Compound 112, N-[3-{3-(piperidinomethyl)phenoxy}propyl]-2-{(5methyl-2-thienyl)methylthio}acetamide]: the Kb on Histamine H2-receptor was 15.8 nM. Consider `Cc1ccc(CSCC(=O)NCCCOc2cccc(CN3CCCCC3)c2)o1` [Compound 69, N-[3-{3-(piperidinomethyl)phenoxy}propyl]-2-(5-methyl-furfurylthio)acetamid], for which the Kb at Histamine H2-receptor is 3.98 nM. Further, the inhibition in vivo at 10 mg/kg in the assay on gastric mucosal leasion was 59%.

`CC1CCN(Cc2cccc(OCCCNC(=O)CS(=O)(=O)Cc3ccoc3)c2)CC1` [Compound 72]: the Kb at Histamine H2-receptor was 100 nM. Also, the inhibition in vivo at 10 mg/kg in the assay with gastric mucosal leasion came out at 60%.

In the case of `O=C(CSCCCc1ccccc1)NCCCOc1cccc(CN2CCCCC2)c1` [Compound 14, N-[3-{3-(piperidinomethyl)phenoxy}propyl]-2-(3-phenylpropyl-1-thio)acetamide], the inhibition in vivo at 10 mg/kg in the assay on gastric mucosal leasion is 55%. On to `O=C(CCCSCc1ccccc1)NCCCOc1cccc(CN2CCCCC2)c1` [Compound 30], for which the inhibition in vivo at 10 mg/kg with gastric mucosal leasion is 62%. As to `O=C(CSCc1ccc(C(=O)O)cc1)NCCCOc1cccc(CN2CCCCC2)c1` [Compound 48, N-[3-{3-(piperidinomethyl)phenoxy}propyl]-2-(4-carboxylbenzylthio)acetamide], the Kb on Histamine H2-receptor is 31.6 nM. Regarding `NC(N)=Nc1nc(CSCCNC(=O)CSCc2ccoc2)cs1` [Compound 104], at Histamine H2-receptor, the Kb was 200 nM. Further, the inhibition in vivo at 10 mg/kg in the assay on gastric mucosal leasion was determined as 50.6%. For the compound `COc1ccc(CSCC(=O)NCCCOc2cccc(CN3CCCCC3)c2)cc1` [Compound 12, N-[3-{3-(piperidinomethyl)phenoxy}propyl]-2-(4-methoxybenzylthio)acetamide], the Kb on Histamine H2-receptor is 50.1 nM.

Take `O=C(CS(=O)(=O)Cc1ccccc1)NCCCOc1cccc(CN2CCCCC2)c1` [Compound 45, N-[3-{3-(piperidinomethyl)phenoxy}propyl]-2-(benzylsulfonyl)acetamide]: the inhibition in vivo at 10 mg/kg with gastric mucosal leasion is 72%. For `O=C(CSCc1ccoc1)NCCCOc1cccc(CN2CCCCC2)c1` [Compound 57, N-[3-{3-(piperidinomethyl)phenoxy}propyl]-2-(3-furylmethylthio)acetamide], on Histamine H2-receptor, the Kb is 31.6 nM. Also, the inhibition in vivo at 10 mg/kg with gastric mucosal leasion was determined as 69%. As for `Cc1cccc(CSCC(=O)NCCCOc2cccc(CN3CCCCC3)c2)n1` [Compound 86], on Histamine H2-receptor, the Kb is 25.1 nM. On to `NC(N)=Nc1nc(CSCCNC(=O)CSCc2ccc3ccccc3c2)cs1` [Compound 108], for which, in the assay on gastric mucosal leasion, the inhibition in vivo at 10 mg/kg was 51.2%. For the compound `CC1CCCCN1Cc1cccc(OCCCNC(=O)CS(=O)(=O)Cc2ccoc2)c1` (centres unmarked) [Compound 74], the Kb at Histamine H2-receptor was 631 nM. Also, the inhibition in vivo at 10 mg/kg with gastric mucosal leasion came to 50%. As to `O=C(CSCc1cccs1)NCCCOc1cccc(CN2CCCCC2)c1` [Compound 20], in the assay on gastric mucosal leasion, the inhibition in vivo at 10 mg/kg was determined as 45%. As to `NC(N)=Nc1nc(CSCCNC(=O)CSCc2cccs2)cs1` [Compound 106], the Kb on Histamine H2-receptor is 200 nM. With `O=C(CSCc1ccco1)NCCSCc1ccc(CN2CCCCC2)o1` [Compound 89], the inhibition in vivo at 10 mg/kg in the assay on gastric mucosal leasion came to 46%. On to `O=C(CSCc1ccco1)NCCCOc1cc(CN2CCCCC2)ccn1` [Compound 100], for which, at Histamine H2-receptor, the Kb was 100 nM. Also, the inhibition in vivo at 10 mg/kg in the assay with gastric mucosal leasion came to 35%.

Turning to `O=C(CSCc1cccc(Cl)n1)NCCCOc1cccc(CN2CCCCC2)c1` [Compound 82, N-[3-{3-(piperidinomethyl)phenoxy}propyl]-2-(6-chloro-2-pyridylmethylthio)acetamide], the Kb at Histamine H2-receptor was 20 nM. For the same compound, the inhibition in vivo at 10 mg/kg with gastric mucosal leasion came out at 61%.
